Reference: the supplement of paper PMC10307832

Compound: COc1cc(Nc2c(C#N)cnc3cc(OCCCN4CCN(C)CC4)c(OC)cc23)c(Cl)cc1Cl [Bosutinib] + CCNC(=O)c1noc(-c2cc(C(C)C)c(O)cc2O)c1-c1ccc(CN2CCOCC2)cc1 [Luminespib] (partner 0.01 µM)
Assay: relative viability (nuclei count vs DMSO), 5 days (fraction); higher = more cells survive
Summary of the method: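 One day after seeding in 1536-well plates, lung cancer cell lines were dosed by pin tool. Dosing was either single-drug or a fixed anchor-drug dose plus five library-drug doses (not always all listed) in √10 steps. After 5 days, nuclei were stained in one fix-and-stain step and counted on 4× images, and relative viability is the nuclei count of treated wells over that of vehicle wells, given as the median of duplicate plates.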

| Cell Line | relative viability (first compound 0.01 µM) | relative viability (first compound 0.03162 µM) | relative viability (first compound 0.1 µM) | relative viability (first compound 1 µM) |
| --- | --- | --- | --- | --- |
| NCI-H647 | 0.202 | 0.284 | 0.159 | 0.183 |
| NCI-H2009 | 1.01 | 1.08 | 1.06 | 0.671 |
| EPLC-272H | 0.149 | 0.932 | 0.649 | 0.278 |
| NCI-H520 | 0.199 | 0.236 | 0.223 | 0.214 |
| NCI-H2405 | 0.661 | 0.645 | 0.696 | 0.439 |
| NCI-H2085 | 0.393 | 0.466 | 0.492 | 0.44 |
| NCI-H322M | 0.771 | 0.754 | 0.793 | 0.333 |
| NCI-H1944 | 0.839 | 0.713 | 0.777 | 0.469 |
| LC-2-ad | 1.05 | 0.924 | 0.978 | 1.01 |
| NCI-H358 | 0.28 | 0.331 | 0.372 | 0.439 |
| NCI-H2170 | 0.515 | 0.665 | 0.702 | 0.44 |
| A-427 | 0.959 | 0.953 | 0.936 | 0.745 |
| NCI-H1666 | 1.02 | 1.01 | 0.995 | 1.1 |
| LOU-NH91 | 0.315 | 0.36 | 0.38 | 0.178 |
| ABC-1 | 0.665 | 0.536 | 0.713 | 0.481 |
| NCI-H1651 | 0.738 | 0.942 | 0.812 | 0.902 |
| 201T | 1.01 | 1.06 | 1.02 | 0.848 |
| NCI-H3122 | 0.0649 | 0.0933 | 0.104 | 0.104 |
| NCI-H727 | 0.233 | 0.477 | 0.55 | 0.504 |
| NCI-H441 | 0.362 | 0.425 | 0.448 | 0.412 |
| HOP-62 | 0.993 | 0.895 | 0.937 | 0.904 |
| RERF-LC-KJ | 1.22 | 1.21 | 1.18 | 1.15 |
| HCC-44 | 1.18 | 1.07 | 1.08 | 0.627 |

| Cell Line | relative viability (first compound 0.01 µM) | relative viability (first compound 0.03162 µM) | relative viability (first compound 0.1 µM) | relative viability (first compound 1 µM) |
| --- | --- | --- | --- | --- |
| LCLC-103H | 0.958 | 0.933 | 1.02 | 0.975 |
| NCI-H1915 | 0.768 | 0.816 | 0.815 | 0.64 |
| ChaGo-K-1 | 0.622 | 0.555 | 0.47 | 0.585 |
| PC-14 | 0.109 | 0.394 | 0.126 | 0.16 |
| SK-LU-1 | 0.199 | 0.189 | 0.212 | 0.187 |
| NCI-H1437 | 1.02 | 1.11 | 1.1 | 1.03 |
| NCI-H1734 | 0.172 | 0.181 | 0.217 | 0.196 |
| LK-2 | 0.199 | 0.171 | 0.19 | 0.209 |
| HCC-15 | 0.39 | 0.346 | 0.315 | 0.18 |
| NCI-H650 | 0.838 | 0.713 | 0.744 | 0.898 |
| NCI-H2347 | 0.39 | 0.507 | 0.472 | 0.266 |
| LXF-289 | 0.718 | 0.674 | 0.702 | 0.689 |
| BEN | 0.442 | 0.282 | 0.478 | 0.434 |
| NCI-H2023 | 0.802 | 0.852 | 0.704 | 0.579 |
| NCI-H661 | 0.947 | 0.964 | 0.963 | 0.758 |
| NCI-H1355 | 0.752 | 0.691 | 0.761 | 0.566 |
| NCI-H1793 | 0.213 | 0.205 | 0.163 | 0.179 |
| COR-L 105 | 0.882 | 0.635 | 0.669 | 0.471 |
| NCI-H2228 | 0.104 | 0.185 | 0.167 | 0.109 |
| NCI-H838 | 0.327 | 0.269 | 0.385 | 0.237 |
| EMC-BAC-2 | 1.22 | 1.07 | 1.17 | 1.04 |
| LU99A | 0.231 | 0.258 | 0.242 | 0.242 |
| PC-3 [JPC-3] | 0.679 | 0.835 | 0.685 | 0.569 |

| Cell Line | relative viability (first compound 0.01 µM) | relative viability (first compound 0.03162 µM) | relative viability (first compound 0.1 µM) | relative viability (first compound 1 µM) |
| --- | --- | --- | --- | --- |
| NCI-H596 | 0.935 | 0.938 | 0.959 | 1.1 |
| LCLC-97TM1 | 0.871 | 0.744 | 0.74 | 0.746 |
| NCI-H1993 | 0.688 | 0.817 | 0.875 | 0.887 |
| HARA | 0.885 | 0.549 | 0.682 | 0.741 |
| NCI-H460 | 0.0343 | 0.0293 | 0.0274 | 0.0252 |
| NCI-H1650 | 0.193 | 0.209 | 0.174 | 0.154 |
| EKVX | 0.799 | 0.914 | 0.834 | 0.633 |
| NCI-H1755 | 0.465 | 0.454 | 0.45 | 0.351 |
| NCI-H1395 | 0.677 | 0.635 | 0.761 | 0.615 |
| NCI-H1792 | 0.528 | 0.35 | 0.411 | 0.367 |
| NCI-H2087 | 0.194 | 0.154 | 0.146 | 0.151 |
| H3255 | 1.11 | 0.912 | 0.866 | 0.784 |
| SK-MES-1 | 0.812 | 0.839 | 0.765 | 0.284 |
| NCI-H23 | 0.197 | 0.205 | 0.204 | 0.195 |
| HCC-827 | 0.709 | 0.589 | 0.525 | 0.174 |
| UMC-11 | 0.967 | 1.16 | 1.05 | 0.806 |
| NCI-H1975 | 0.244 | 0.252 | 0.21 | 0.141 |
| NCI-H1563 | 0.516 | 0.535 | 0.54 | 0.521 |
| COR-L23 | 0.613 | 0.685 | 0.76 | 0.56 |
| CAL-12T | 0.516 | 0.587 | 0.335 | 0.204 |
| SW 1573 | 0.267 | 0.956 | 0.246 | 0.183 |
| NCI-H2126 | 0.848 | 0.828 | 0.874 | 0.725 |
